From publication PMC5643462, “Encrypted Antimicrobial Peptides from Plant Proteins” (Scientific Reports, 2017)
Like-named read-outs stand apart in the source and are kept apart here. No end group written: not given here.

Experiments:
human red blood cells = experiment: Cytotoxicity: hemolysis of human red blood cells; type: cell-based; conditions: for Concentration that induced 50% hemolysis: red cells of human
Method: The cytotoxicity of the selected IAPS was performed using human red blood cells in strict accordance with relevant guidelines and regulations (Ethical committee – UnB # 1.939.989). Different concentrations of IAPs (128 µM–0.5 µM) were incubated with a final concentration of 2.5 × 10^5 red blood cells.mL^−1. Briefly, 100 µL of red blood cells was incubated with 100 µL of different concentrations of each IAP, prepared in PBS, for 30 minutes at 37 °C, with constant shaking at 120 rpm. PBS and Triton X-100 0.1% (v/v) were used as negative and positive controls, respectively. After incubation, the solution was centrifuged at 900 × g for five minutes followed by transferring 50 µL of the supernatant to flat-bottom polystyrene 96-well micro plates containing 50 µL of PBS. Microplate reading was performed at a BioTek Multireader, using a wavelength of 540 nm. All tests were performed in 3 biological replicates, composed of 3 biological repetitions each. The obtained data was subtracted by the negative control and relative to the positive control, defined as 100% lysis.

[1] = tested on: Moniliophthora perniciosa basidiospores; experiment: Inhibition of M. perniciosa basidiospore germination; type: cell-based; conditions: 1 × 10^6 basidiospores mL^−1, one hour with peptide (256-0.5 µM), 24 °C, counted after 4 hours on agar slides, biological triplicates; for IC50: concentration at which at least 50% of basidiospores germination was inhibited, read-out: Inhibitory concentration IC50, M. perniciosa basidiospores germination; for Inhibitory concentration IC95, M. perniciosa basidiospores germination: concentration at which at least 95% of basidiospores germination was inhibited
Method: The antimicrobial potential of T. cacao IAPs for inhibiting M. perniciosa basidiospores was evaluated. Briefly, 1 × 10^6 basidiospores mL^−1 were incubated for one hour with different concentrations of T. cacao IAPs (256-0.5 µM), at 24 °C, in a final volume of 100 µL. Autoclaved dH20 was used as a control. After incubation, 3 droplets of 10 µL each were placed in a slide coated with agar (1.2% (w/v)). Slides were incubated for 4, 24 and 48 hours at 24 °C. Slides were visualized using a DMRXA light microscope (Leica). Approximately 150–200 basidiospores per droplet from each time point were counted and compared to the control condition, which was defined as 100% germination. All experiments were performed in biological triplicates, with 3 technical repetitions each.

[2] = Far-UV circular dichroism, helix percentage in buffer and with LUVs; type: physicochemical; conditions: room temperature, from [θ]222 nm, * = β-sheet structure; for %Hel 2:1 DMPC/DMPG: 40 μM peptide + 2 mM 2:1 DMPC:DMPG LUVs (50 fold excess); for %Hel 2:1 DMPC/DMPG / %Hel DMPC: pH 7.4 buffer; for %Hel DMPC: 40 μM peptide + 2 mM DMPC LUVs (50 fold excess); for %Hel buffer: 40 μM peptide in 20 mM sodium phosphate, 150 mM NaCl, pH 7.4
Method: DMPC and 2:1 DMPC:DMPG (w/w) were dissolved in chloroform and methanol (3:1 v/v) at 10 mg/mL, dried using a rotary evaporator and left 3 hours under high vacuum in a freeze dryer. Phospholipids were then dissolved in 20 mM Sodium phosphate – NaOH, 150 mM NaCl, pH 7.4 and hand-shaken until the formation of a cloudy solution, which was passed 19 times through a 100 nm polycarbonate membrane at 30 °C for the formation of large unilamelar vesicles (LUVs) using a mini-extruder (Avanti Polar Lipids). Phospholipid concentration was estimated according to the ammonium ferrothiocyanate method.
Experiments were conducted on a Jasco-J815 spectropolarimeter (Jasco International Co.). Spectra were acquired at room temperature from 200 to 260 nm as an average of 4 readings using a 0.1 cm path length cell, data pitch of 0.2 nm and a response time of 0.5 s. Data Scans of buffer and 2 mM DMPC and 2:1 DMPC:DMPG LUVs solutions were acquired and subtracted from each peptide data. Peptides were scanned at a concentration of 40 μM in buffer and then 50 fold excess of DMPC and 2:1 DMPC:DMPG LUVs were added, resulting in a molar ratio of 0.02 peptide/phospholipid. The spectra were converted to mean residue ellipticity and readings at [θ]222 nm were used to estimate helix percentages.

Row | Substance | Hemolytic activity (% ± SD) at 1 µM (human red blood cells) [%] | Hemolytic activity (% ± SD) at 2 µM (human red blood cells) [%] | Hemolytic activity (% ± SD) at 4 µM (human red blood cells) [%] | Hemolytic activity (% ± SD) at 8 µM (human red blood cells) | Hemolytic activity (% ± SD) at 16 µM (human red blood cells) [%] | Hemolytic activity (% ± SD) at 32 µM (human red blood cells) [%] | Hemolytic activity (% ± SD) at 64 µM (human red blood cells) | Hemolytic activity (% ± SD) at 128 µM (human red blood cells) [%] | Hemolytic activity of human red blood cells (%) SC50 (human red blood cells) [µM] | Concentration that induced 50% hemolysis (human red blood cells) [µM] | IC50 [1] [µM] | Inhibitory concentration IC95, M. perniciosa basidiospores germination [1] [µM] | %Hel 2:1 DMPC/DMPG [2] [%] | %Hel DMPC [2] [%] | %Hel buffer [2] [%] | Hemolytic activity of human red blood cells (%) SC50 (human red blood cells; SC50 = IAP concentration that at least 50% of red blood cells remain intact, 128 µM–0.5 µM tested, PBS, 30 minutes, 37 °C, absorbance 540 nm) [µM]
1 | ANRLLEAYKMLLKFLGNLR-NH2 [Gr02] | 0.01 ± 0.01 | 0.38 ± 0.09 | 1.23 ± 0.05 | 4.19 ± 0.78% | 7.01 ± 3.48 | 28.33 ± 4.77 | 46.44 ± 7.63% | 68.42 ± 5.45 | 64 | 64 | – | – | – | – | – | –
2 | FFYNVIKIYGNMAGRISK-NH2 [Cs03] | 0.00 ± 0.00 | 0.02 ± 0.00 | 0.01 ± 0.00 | 0.00 ± 0.00% | 0.21 ± 0.05 | 0.99 ± 0.34 | 4.11 ± 1.22% | 14.51 ± 1.55 | >128 | – | – | – | – | – | – | –
3 | GAKLAKKQVRALGKFFSF-NH2 [At03] | 0.00 ± 0.00 | 0.00 ± 0.00 | 0.04 ± 0.01 | 0.02 ± 0.00% | 0.00 ± 0.00 | 0.03 ± 0.00 | 0.17 ± 0.08% | 0.34 ± 0.11 | >128 | – | – | – | – | – | – | –
4 | GFKDLLKGAAKALVKTVLF-NH2 [Asc-8, Ascaphin-8, reference compound] | 0.00 ± 0.00 | 0.32 ± 0.1 | 0.26 ± 0.2 | 14.72 ± 0 .79% | 28.10 ± 4.76 | 54.35 ± 4.5 | 91.90 ± 6.36% | 101.56 ± 9.52 | 16 | – | 8 | 16 | – | – | – | –
5 | GIVLKDLFSEKLRRYKIVIG [Tc09, IAP from Theobroma cacao, NB-ARC domain-containing disease resistance protein, putative] | – | – | – | – | – | – | – | – | – | – | – | – | 0.0 | 19.3 | 12.3 | –
6 | GKILKYLLYLLRKYANLIIR-NH2 [Tc02] | 0.00 ± 0.00 | 0.00 ± 0.00 | 0.40 ± 0.26 | 2.89 ± 1.12% | 6.30 ± 1.59 | 17.39 ± 1.15 | 29.15 ± 2.57% | 50.15 ± 5.15 | 64 | 64 | 8 | 16 | – | – | – | –
7 | GLLFKELQKLIRYQIFIGK-NH2 [Tc10] | 0.00 ± 0.0 | 0.00 ± 0.0 | 0.18 ± 0.04 | 0.06 ± 0.02% | 0.00 ± 0.00 | 0.23 ± 0.10 | 0.68 ± 0.17% | 4.56 ± 0.58 | >128 | – | 32 | 64 | – | – | – | –
8 | GLYNFIKVLGRTVFGLYKQF-NH2 [At04] | 0.00 ± 0.00 | 0.00 ± 0.00 | 0.00 ± 0.00 | 0.09 ± 0.04% | 0.40 ± 0.10 | 0.91 ± 0.20 | 4.12 ± 1.41% | 13.8 ± 2.41 | >128 | – | – | – | – | – | – | –
9 | GSLHGFMYKYLKNMVLTLF-NH2 [At01] | 0.00 ± 0.00 | 0.00 ± 0.00 | 0.00 ± 0.00 | 0.00 ± 0.00% | 0.19 ± 0.01 | 1.05 ± 0.22 | 5.04 ± 2.39% | 14.6 ± 2.14 | >128 | – | – | – | – | – | – | –
10 | IKLRNVLKYLFRIDVIKEDIL-NH2 [Tc03] | 0.03 ± 0.00 | 0.04 ± 0.03 | 0.00 ± 0.00 | 0.17 ± 0.04% | 0.09 ± 0.01 | 0.67 ± 0.30 | 2.29 ± 1.18% | 7.89 ± 1.44 | >128 | – | – | – | – | – | – | –
11 | KVLSKVHTLLKAVLAL-NH2 [At02] | 0.04 ± 0.00 | 0.03 ± 0.00 | 0.02 ± 0.00 | 0.00 ± 0.00% | 0.30 ± 0.16 | 2.41 ± 0.98 | 10.28 ± 4.3% | 23.10 ± 3.41 | >128 | – | – | – | – | – | – | –
12 | LHRLVKLVAALLRGYASKVDTH [Tc08] | 0.11 ± 0.04 | 0.11 ± 0.09 | 0.27 ± 0.10 | 0.30 ± 0.05% | 2.00 ± 1.13 | 15.47 ± 1.58 | 28.81 ± 2.6 7% | – | – | – | – | – | – | – | – | >128
13 | LIKVVNHVQYNVTLHWHGIR [Tc07, IAP from Theobroma cacao, Laccase 17] | – | – | – | – | – | – | – | – | – | – | – | – | 19.9 | 17.1 | 23.5 | –
14 | LLDKLKRTLLSIEAVLI [Tc11, IAP from Theobroma cacao, LRR and NB-ARC domains-containing disease resistance protein] | – | – | – | – | – | – | – | – | – | – | – | – | 56.7 | 57.0 | 45.8 | –
15 | RVLKDVESALRESVANWKIVIG [Tc04, IAP from Theobroma cacao, Purple acid phosphatase 3] | – | – | – | – | – | – | – | – | – | – | – | – | 36.3 | 15.8 | 14.3 | –
16 | VALRLAKEVIKVQQGW [Tc01, IAP from Theobroma cacao, Embryo defective 1381 isoform 2] | – | – | – | – | – | – | – | – | – | – | – | – | 64.8 | 4.5 | 5.0 | –
